The values below come from patent US10975030B2, “Grp94 selective inhibitors and uses thereof” (University of Kansas, priority 2016, dated 2021).

Each structure is given as a SMILES string. “And” between values parts separate entries of the source, which are not always exact repeats. Equal entries are not always repeated.

Assay [1] addresses Hsp90α (Homo sapiens (Human), UniProt P07900). Kind of assay: Fluorescence polarization (FP) assay, Hsp90α. Format: binding. Here is the method:
(§1) Fluorescence Polarization. Assay buffer (25 μL, 20 mM HEPES pH 7.3, 50 mM KCl, 5 mM MgCl2, 1 mM DTT, 20 mM Na2MoO4, 0.01% NP-40, and 0.5 mg/mL BGG) was added to 96-well plate (black well, black bottom) followed by the desired compound at the indicated final concentrations in DMSO (1% DMSO final concentration). […] Plates were incubated with rocking for 5 h at 4° C. […] Percent FITC-GDA bound was determined by using the DMSO millipolarization unit (mP) as the 100% bound value and the 0% for FITC-GDA. Kd values were calculated from separate experiments performed in triplicate using GraphPad Prism.
Background: In fluorescence polarisation assays a small probe gives low polarisation when free and higher when bound to something large.

The target of assay [2] is Grp94 (recombinant cGrp94) (Canis lupus familiaris (Dog) (Canis familiaris), UniProt P41148). Kind of assay: Fluorescence polarization (FP) assay, cGrp94 with FITC-GDA. Format: binding. The conditions noted are these: apparent Kd, cGrp94 and FITC-GDA, triplicates, ± SEM, read-out: Kd Grp94. As to the method:
as §1

Chain of Grp94 (recombinant cGrp94) (P41148 22-804): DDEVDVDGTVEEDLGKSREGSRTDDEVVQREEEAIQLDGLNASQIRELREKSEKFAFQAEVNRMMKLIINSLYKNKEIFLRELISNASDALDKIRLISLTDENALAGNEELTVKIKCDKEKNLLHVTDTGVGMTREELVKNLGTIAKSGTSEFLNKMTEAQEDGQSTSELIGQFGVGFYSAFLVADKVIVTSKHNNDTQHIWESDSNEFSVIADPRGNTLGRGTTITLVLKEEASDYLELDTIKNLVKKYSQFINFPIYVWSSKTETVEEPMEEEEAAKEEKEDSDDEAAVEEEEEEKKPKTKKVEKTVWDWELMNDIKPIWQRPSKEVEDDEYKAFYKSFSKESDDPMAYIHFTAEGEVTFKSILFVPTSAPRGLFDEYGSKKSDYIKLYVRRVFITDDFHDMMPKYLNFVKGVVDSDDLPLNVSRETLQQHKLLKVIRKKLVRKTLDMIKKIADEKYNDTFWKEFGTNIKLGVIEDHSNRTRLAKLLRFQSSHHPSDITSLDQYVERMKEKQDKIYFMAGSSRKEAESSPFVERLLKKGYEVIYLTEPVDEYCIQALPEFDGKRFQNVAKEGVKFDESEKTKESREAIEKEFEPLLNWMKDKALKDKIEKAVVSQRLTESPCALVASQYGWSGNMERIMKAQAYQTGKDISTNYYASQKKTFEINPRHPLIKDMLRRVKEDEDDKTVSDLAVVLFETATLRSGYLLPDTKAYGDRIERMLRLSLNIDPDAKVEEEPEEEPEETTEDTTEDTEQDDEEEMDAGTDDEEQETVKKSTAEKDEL

Regarding `NC(=O)c1ccc(-n2cccc2-c2ccccc2)cc1N[C@H]1CC[C@H](O)CC1` [Compound 5a, 2-(((1r,4r)-4-hydroxycyclohexyl)amino)-4-(2-phenyl-1H-pyrrol-1-yl)benzamide], the Kd in assay [1] is greater than 100 µM; in assay [2], ~9 µM and 9.05 µM.

For the compound `Cc1ccccc1-c1cccn1-c1ccc(C(N)=O)c(N[C@H]2CC[C@H](O)CC2)c1` [Compound 5b, 2-(((1r,4r)-4-hydroxycyclohexyl)amino)-4-(2-(o-tolyl)-1H-pyrrol-1-yl)benzamide], the Kd was greater than 100 µM in assay [1] and 9.9 ± 0.54 µM in assay [2].

As for `Cc1cccc(-c2cccn2-c2ccc(C(N)=O)c(N[C@H]3CC[C@H](O)CC3)c2)c1` [Compound 5c, 2-(((1r,4r)-4-hydroxycyclohexyl)amino)-4-(2-(m-tolyl)-1H-pyrrol-1-yl)benzamide], the results for the Kd in assay [1] and in assay [2] were greater than 100 µM and 9.43 ± 0.26 µM, respectively.

With `Cc1ccc(-c2cccn2-c2ccc(C(N)=O)c(N[C@H]3CC[C@H](O)CC3)c2)cc1` [Compound 5d, 2-(((1r,4r)-4-hydroxycyclohexyl)amino)-4-(2-(p-tolyl)-1H-pyrrol-1-yl)benzamide], the Kd is greater than 100 µM in assay [1] and 8.35 ± 0.14 µM in assay [2].

For the compound `NC(=O)c1ccc(-n2cccc2-c2ccccc2Cl)cc1N[C@H]1CC[C@H](O)CC1` [Compound 5e, 4-(2-(2-chlorophenyl)-1H-pyrrol-1-yl)-2-(((1r,4r)-4-hydroxycyclohexyl)amino)benzamide], the Kd in assay [1] is greater than 100 µM.

Take `NC(=O)c1ccc(-n2cccc2-c2cccc(Cl)c2)cc1N[C@H]1CC[C@H](O)CC1` [Compound 5f, 4-(2-(3-chlorophenyl)-1H-pyrrol-1-yl)-2-(((1r,4r)-4-hydroxycyclohexyl)amino)benzamide]: in assay [1], the Kd was greater than 100 µM.

Take `NC(=O)c1ccc(-n2cccc2-c2ccc(Cl)cc2)cc1N[C@H]1CC[C@H](O)CC1` [Compound 5g, 4-(2-(4-chlorophenyl)-1H-pyrrol-1-yl)-2-(((1r,4r)-4-hydroxycyclohexyl)amino)benzamide]: the Kd is greater than 100 µM in assay [1] and 10.6 ± 0.54 µM in assay [2].

For `NC(=O)c1ccc(-n2cccc2-c2ccccn2)cc1N[C@H]1CC[C@H](O)CC1` [Compound 5h, 2-(((1r,4r)-4-hydroxycyclohexyl)amino)-4-(2-(pyridin-2-yl)-1H-pyrrol-1-yl)benzamide], the Kd was greater than 100 µM in assay [1] and 14 ± 0.27 µM in assay [2].

`NC(=O)c1ccc(-n2cccc2-c2cccnc2)cc1N[C@H]1CC[C@H](O)CC1` [Compound 5i, 2-(((1r,4r)-4-hydroxycyclohexyl)amino)-4-(2-(pyridin-3-yl)-1H-pyrrol-1-yl)benzamide]: the Kd in assay [1] was greater than 100 µM; in assay [2], 5.5 ± 0.15 µM.

For `NC(=O)c1ccc(-n2cccc2-c2ccncc2)cc1N[C@H]1CC[C@H](O)CC1` [Compound 5j, 2-(((1r,4r)-4-hydroxycyclohexyl)amino)-4-(2-(pyridin-4-yl)-1H-pyrrol-1-yl)benzamide], the values for the Kd in assay [1] and in assay [2] were greater than 100 µM and 13.2 ± 0.12 µM, respectively.

With `NC(=O)c1ccc(-n2cccc2Cc2ccccc2)cc1N[C@H]1CC[C@H](O)CC1` [Compound 8a, 4-(2-benzyl-1H-pyrrol-1-yl)-2-(((1r,4r)-4-hydroxycyclohexyl)amino)benzamide], the Kd is greater than 100 µM in assay [1]; ~1.3 µM and 1.13 µM in assay [2].

As to `NC(=O)c1ccc(-n2cccc2Cc2ccccc2Cl)cc1N[C@H]1CC[C@H](O)CC1` [Compound 8b, 4-(2-(2-chlorobenzyl)-1H-pyrrol-1-yl)-2-(((1r,4r)-4-hydroxycyclohexyl)amino)benzamide], the Kd in assay [1] is greater than 100 µM; in assay [2], 0.83 ± 0.12 µM.

Consider `NC(=O)c1ccc(-n2cccc2Cc2cccc(Cl)c2)cc1N[C@H]1CC[C@H](O)CC1` [Compound 8c], for which the values for the Kd in assay [1] and in assay [2] were greater than 100 µM and 2.45 ± 0.45 µM, respectively.

Regarding `NC(=O)c1ccc(-n2cccc2Cc2ccc(Cl)cc2)cc1N[C@H]1CC[C@H](O)CC1` [Compound 8d, 4-(2-(4-chlorobenzyl)-1H-pyrrol-1-yl)-2-(((1r,4r)-4-hydroxycyclohexyl)amino)benzamide], the Kd in assay [1] is greater than 100 µM; in assay [2], greater than 25 µM.

Regarding `NC(=O)c1ccc(-n2cccc2Cc2cccc(F)c2)cc1N[C@H]1CC[C@H](O)CC1` [Compound 8f, 4-(2-(3-fluorobenzyl)-1H-pyrrol-1-yl)-2-(((1r,4r)-4-hydroxycyclohexyl)amino)benzamide], the Kd is greater than 100 µM in assay [1] and 4.53 ± 0.12 µM in assay [2].

Turning to `NC(=O)c1ccc(-n2cccc2Cc2ccc(F)cc2)cc1N[C@H]1CC[C@H](O)CC1` [Compound 8g, 4-(2-(4-fluorobenzyl)-1H-pyrrol-1-yl)-2-(((1r,4r)-4-hydroxycyclohexyl)amino)benzamide], the Kd in assay [1] was greater than 100 µM; in assay [2], 8.35 ± 0.14 µM.

As for `NC(=O)c1ccc(-n2cccc2Cc2ccccc2Br)cc1N[C@H]1CC[C@H](O)CC1` [Compound 8h, 4-(2-(2-bromobenzyl)-1H-pyrrol-1-yl)-2-(((1r,4r)-4-hydroxycyclohexyl)amino)benzamide], the figures for the Kd in assay [1] and in assay [2] were greater than 100 µM and 12.9 ± 0.11 µM, respectively.

`Cc1ccccc1Cc1cccn1-c1ccc(C(N)=O)c(N[C@H]2CC[C@H](O)CC2)c1` [Compound 8i, 2-(((1r,4r)-4-hydroxycyclohexyl)amino)-4-(2-(2-methylbenzyl)-1H-pyrrol-1-yl)benzamide]: the values for the Kd in assay [1] and in assay [2] were greater than 100 µM and 4.2 ± 0.23 µM, respectively.

`NC(=O)c1ccc(-n2cccc2Cc2cccc(O)c2)cc1N[C@H]1CC[C@H](O)CC1` [Compound 8k, 4-(2-(3-hydroxybenzyl)-1H-pyrrol-1-yl)-2-(((1r,4r)-4-hydroxycyclohexyl)amino)benzamide]: the Kd in assay [1] was greater than 100 µM; in assay [2], greater than 25 µM.

As for `NC(=O)c1ccc(-n2cccc2Cc2ccc(O)cc2)cc1N[C@H]1CC[C@H](O)CC1` [Compound 8l, 4-(2-(4-hydroxybenzyl)-1H-pyrrol-1-yl)-2-(((1r,4r)-4-hydroxycyclohexyl)amino)benzamide], the Kd in assay [1] is greater than 100 µM.

`COc1ccccc1Cc1cccn1-c1ccc(C(N)=O)c(N[C@H]2CC[C@H](O)CC2)c1` [Compound 8m, 2-(((1r,4r)-4-hydroxycyclohexyl)amino)-4-(2-(2-methoxybenzyl)-1H-pyrrol-1-yl)benzamide]: the Kd in assay [1] is greater than 100 µM; in assay [2] it was 1.15 µM.

For `NC(=O)c1ccc(-n2cccc2Cc2c(F)cccc2F)cc1N[C@H]1CC[C@H](O)CC1` [Compound 8n, 4-(2-(2,6-difluorobenzyl)-1H-pyrrol-1-yl)-2-(((1r,4r)-4hydroxycyclohexyl)amino)benzamide], the Kd in assay [1] is greater than 100 µM; in assay [2], greater than 25 µM.

Turning to `NC(=O)c1ccc(-n2cccc2Cc2ccccn2)cc1N[C@H]1CC[C@H](O)CC1` [Compound 8o, 2-(((1r,4r)-4-hydroxycyclohexyl)amino)-4-(2-(pyridin-2-ylmethyl)-1H-pyrrol-1-yl)benzamide], the values for the Kd in assay [1] and in assay [2] were greater than 100 µM and 14 ± 0.27 µM, respectively.

Regarding `NC(=O)c1ccc(-n2cccc2Cc2cccnc2)cc1N[C@H]1CC[C@H](O)CC1` [Compound 8p, 2-(((1r,4r)-4-hydroxycyclohexyl)amino)-4-(2-(pyridin-3-ylmethyl)-1H-pyrrol-1-yl) benzamide], the Kd in assay [1] was greater than 100 µM; in assay [2], 5.5 ± 0.15 µM.

For the compound `NC(=O)c1ccc(-n2cccc2Cc2ccncc2)cc1N[C@H]1CC[C@H](O)CC1` [Compound 8q, 2-(((1r,4r)-4-hydroxycyclohexyl)amino)-4-(2-(pyridin-4-ylmethyl)-1H-pyrrol-1-yl)benzamide], the Kd in assay [1] is greater than 100 µM; in assay [2], 13.2 ± 0.12 µM.

`NC(=O)c1ccc(-n2cccc2CCc2ccccc2)cc1N[C@H]1CC[C@H](O)CC1` [Compound 9, 2-(((1r,4r)-4-hydroxycyclohexyl)amino)-4-(2-phenethyl-1H-pyrrol-1-yl)benzamide]: the values for the Kd in assay [1] and in assay [2] were greater than 100 µM and greater than 25 µM, respectively.
